We go through 13 compounds from ChEMBL document CHEMBL4725325, “Synthesis and biological evaluation of parthenolide derivatives with reduced toxicity as potential inhibitors of the NLRP3 inflammasome” (Bioorg Med Chem Lett, 2020).

For data set [1], the target named is NACHT, LRR and PYD domains-containing protein 3 (Mus musculus) (UniProt Q8R4B8). The data set can be described thus: Inhibition of NLRP3 inflammasome in mouse J774.A1 cells assessed as reduction in LPS-induced IL-1beta release at 1 to 10 uM. In kind it is cell-based. Particulars: dose microM 1-10.
Sequence of NACHT, LRR and PYD domains-containing protein 3 (Mus musculus) (Q8R4B8 whole entry, the tested form may be a part): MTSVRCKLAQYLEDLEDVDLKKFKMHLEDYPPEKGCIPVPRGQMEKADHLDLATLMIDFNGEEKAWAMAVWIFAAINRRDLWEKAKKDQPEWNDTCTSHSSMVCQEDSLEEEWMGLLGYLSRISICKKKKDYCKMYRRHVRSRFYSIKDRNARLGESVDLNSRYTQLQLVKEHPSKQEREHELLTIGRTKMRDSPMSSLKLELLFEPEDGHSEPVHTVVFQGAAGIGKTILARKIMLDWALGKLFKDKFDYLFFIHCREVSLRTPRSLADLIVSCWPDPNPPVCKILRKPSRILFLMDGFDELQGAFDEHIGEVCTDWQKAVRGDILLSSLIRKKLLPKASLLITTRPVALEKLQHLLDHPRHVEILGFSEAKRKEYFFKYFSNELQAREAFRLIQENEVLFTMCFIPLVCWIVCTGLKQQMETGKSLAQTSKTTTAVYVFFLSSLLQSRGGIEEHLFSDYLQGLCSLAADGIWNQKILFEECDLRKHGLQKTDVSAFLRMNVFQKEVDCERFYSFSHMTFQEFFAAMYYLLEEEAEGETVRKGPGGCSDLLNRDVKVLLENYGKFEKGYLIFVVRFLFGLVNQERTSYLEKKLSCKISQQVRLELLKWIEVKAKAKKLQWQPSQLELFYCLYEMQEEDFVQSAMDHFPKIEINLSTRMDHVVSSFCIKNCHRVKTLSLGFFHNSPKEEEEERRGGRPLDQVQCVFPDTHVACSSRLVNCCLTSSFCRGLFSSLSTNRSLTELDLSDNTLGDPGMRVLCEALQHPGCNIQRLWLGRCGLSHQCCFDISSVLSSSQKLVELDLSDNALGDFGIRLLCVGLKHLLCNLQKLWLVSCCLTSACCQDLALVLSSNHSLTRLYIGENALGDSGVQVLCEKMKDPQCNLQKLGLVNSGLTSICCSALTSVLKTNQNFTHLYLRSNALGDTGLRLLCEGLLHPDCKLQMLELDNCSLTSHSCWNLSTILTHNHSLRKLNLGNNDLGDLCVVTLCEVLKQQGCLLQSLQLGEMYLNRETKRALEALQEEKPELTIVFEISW
The target of data set [2] is T1, NACHT, LRR and PYD domains-containing protein 3 (Homo sapiens, UniProt Q96P20). The data set can be described thus: Inhibition of NLRP3 inflammasome in human primary glial cells assessed as reduction in LPS-induced IL-1beta release at 1 to 10 uM. Type of data set: cell-based. Particulars: dose microM 1-10.
T1 sequence (Q96P20 whole entry, the tested form may be a part): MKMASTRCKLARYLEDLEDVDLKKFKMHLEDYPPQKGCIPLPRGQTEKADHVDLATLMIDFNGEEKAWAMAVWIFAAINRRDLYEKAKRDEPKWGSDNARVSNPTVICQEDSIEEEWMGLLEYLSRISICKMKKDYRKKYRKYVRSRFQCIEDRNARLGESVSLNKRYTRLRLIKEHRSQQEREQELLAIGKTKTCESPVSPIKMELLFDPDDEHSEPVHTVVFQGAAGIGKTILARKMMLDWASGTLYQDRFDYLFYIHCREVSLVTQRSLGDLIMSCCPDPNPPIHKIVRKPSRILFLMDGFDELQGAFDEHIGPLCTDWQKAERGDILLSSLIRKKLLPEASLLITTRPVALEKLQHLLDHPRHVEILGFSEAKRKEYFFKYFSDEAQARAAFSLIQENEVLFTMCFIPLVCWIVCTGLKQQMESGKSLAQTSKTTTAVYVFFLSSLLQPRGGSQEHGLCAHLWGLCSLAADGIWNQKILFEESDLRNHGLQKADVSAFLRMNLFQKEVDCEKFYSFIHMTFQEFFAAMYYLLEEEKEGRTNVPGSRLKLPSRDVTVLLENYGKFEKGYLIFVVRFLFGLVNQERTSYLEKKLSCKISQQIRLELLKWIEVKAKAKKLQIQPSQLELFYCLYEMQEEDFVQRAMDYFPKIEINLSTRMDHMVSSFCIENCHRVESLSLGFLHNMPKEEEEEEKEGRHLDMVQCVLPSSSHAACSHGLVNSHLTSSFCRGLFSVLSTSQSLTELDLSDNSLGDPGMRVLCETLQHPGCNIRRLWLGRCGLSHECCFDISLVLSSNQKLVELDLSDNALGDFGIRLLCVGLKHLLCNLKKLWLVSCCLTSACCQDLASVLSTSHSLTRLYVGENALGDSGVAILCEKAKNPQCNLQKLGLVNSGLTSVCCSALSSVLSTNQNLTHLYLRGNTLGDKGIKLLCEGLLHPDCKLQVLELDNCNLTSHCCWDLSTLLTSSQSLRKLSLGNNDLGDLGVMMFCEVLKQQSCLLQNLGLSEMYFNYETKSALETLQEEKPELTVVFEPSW
Data set [3] deals with NACHT, LRR and PYD domains-containing protein 3 (Mus musculus) (UniProt Q8R4B8). The data set can be described thus: Inhibition of NLRP3 inflammasome in mouse J774.A1 cells assessed as reduction in LPS-induced IL-1beta release at 10 uM. Type of data set: cell-based.
In data set [4] the target is T1, NACHT, LRR and PYD domains-containing protein 3. The data set can be described thus: Inhibition of NLRP3 inflammasome in human primary glial cells assessed as reduction in LPS-induced IL-1beta release at 10 uM. Type of data set: cell-based. Particulars: Primary neuron.
The target in data set [5] is NACHT, LRR and PYD domains-containing protein 3 (Mus musculus) (UniProt Q8R4B8). The data set can be described thus: Inhibition of NLRP3 inflammasome in mouse J774.A1 cells assessed as reduction in LPS-induced IL-1beta release at 10 uM in presence of PTL/MCL. In kind it is cell-based.
Data set [6] concerns the target T1, NACHT, LRR and PYD domains-containing protein 3. The data set can be described thus: Inhibition of NLRP3 inflammasome in human primary glial cells assessed as reduction in LPS-induced IL-1beta release at 10 uM in presence of PTL/MCL. In kind it is cell-based. Particulars: Primary neuron.
Data set [7] addresses NACHT, LRR and PYD domains-containing protein 3 (Mus musculus, UniProt Q8R4B8). The data set can be described thus: Inhibition of NLRP3 inflammasome in mouse J774.A1 cells assessed as reduction in LPS-induced IL-1beta release. Type of data set: cell-based.
For data set [8], the target named is T1, NACHT, LRR and PYD domains-containing protein 3. The data set can be described thus: Inhibition of NLRP3 inflammasome in human primary glial cells assessed as reduction in LPS-induced IL-1beta release. In kind it is cell-based.
A short description of data set [9]: Cytotoxicity against mouse J774.A1 cells. In kind it is cell-based. Particulars: read-out: TC50 (the source's name).
Data set [10] can be described thus: Cytotoxicity against human HEK-293T cells. Type of data set: cell-based. Particulars: read-out: TC50 (the source's name).
Data set [11] in a line: Therapeutic index, ratio of IC50 for cytotoxicity against mouse J774.A1 cells to IC50 for antiinflammatory activity in mouse J774.A1 cells. In kind it is toxicity, cell-based.
For data set [12], the system named is Mus musculus. The data set can be described thus: In vivo inhibition of NLRP3 in mouse assessed as reduction in LPS-induced IL-1beta release in serum at 30 mg/kg, po. In kind it is functional, organism-based.
Data set [13] has as its system Mus musculus. The data set can be described thus: In vivo inhibition of NLRP3 in mouse assessed as reduction in LPS-induced IL-1beta release in peritoneal fluid at 30 mg/kg, po. In kind it is functional, organism-based.
Data set [14] concerns the target T1, NACHT, LRR and PYD domains-containing protein 3. The data set can be described thus: Inhibition of NLRP3 inflammasome activation (unknown origin) assessed as reduction in caspase 1 p20 level by Western blot analysis. In kind it is tissue-based. Particulars: Primary neuron, dose microM 0.2-5.
Data set [15] has the same target. The data set can be described thus: Inhibition of NLRP3 inflammasome activation (unknown origin) assessed as reduction in IL-1beta by Western blot analysis. Particulars: dose microM 0.2-5.
The target is the same in data set [16]. The data set can be described thus: Inhibition of NLRP3 inflammasome activation (unknown origin) assessed as reduction in proIL-1beta at 0.2 to 5 uM by Western blot analysis. Particulars: dose microM 0.2-5. Background: In western blotting, separated proteins are transferred to a membrane and probed.
The target is the same in data set [17]. The data set can be described thus: Inhibition of NLRP3 inflammasome activation (unknown origin) assessed as reduction in procaspase1 at 0.2 to 5 uM by Western blot analysis. Particulars: dose microM 0.2-5.
Data set [18] shares this target. The data set can be described thus: Inhibition of NLRP3 inflammasome activation (unknown origin) assessed as reduction in ASC level at 0.2 to 5 uM by Western blot analysis. Particulars: dose microM 0.2-5.

Active and inactive are the calls of the source. No cut-off for these calls is given here.

Sequence of NACHT, LRR and PYD domains-containing protein 3 (Mus musculus, UniProt Q8R4B8) (Q8R4B8 whole entry, the tested form may be a part): as the sequence (Q8R4B8 whole entry, the tested form may be a part) above

In the case of `C=C1CCC[C@]2(C)CC[C@H]3C(=C)C(=O)O[C@@H]3[C@@H]12`, the inhibition result in [1] and in [2] was “Dose-dependent effect” throughout.
For the compound `Nc1nc2ccc(OC(F)(F)F)cc2s1`, the inhibition result in data set [3] and in data set [4] was “inactive” each time. Also, the inhibition entry in [5] and in data set [6] was “Active” in each case.
Turning to `C=C1C(=O)O[C@@H]2[C@H]3C(C)=CCC[C@]3(C)CC[C@@H]12`, the inhibition entry in data set [1] and in data set [2] was “Dose-dependent effect” in each case.
One may read the IC50 as the concentration needed to halve the response being measured. On to `C/C1=C\CC[C@]2(C)O[C@@H]2[C@H]2OC(=O)[C@@H](CN(C)CCCOc3no[n+]([O-])c3S(=O)(=O)c3ccccc3)[C@@H]2CC1`, for which the IC50 amounted to 0.4 µM in data set [7] and 2.2 µM in [8]. Moreover, the CC50 in [9] was found to be 66.6 µM; in [10] it was 166 µM. For the same compound, in data set [11], the selectivity ratio was 166.
Consider `CC1=C2CC[C@@](C)(O)[C@@H]2[C@H]2OC(=O)[C@@H](CN(C)CCOc3no[n+]([O-])c3S(=O)(=O)c3ccccc3)[C@@H]2CC1`, for which the IC50 in [7] stood at 0.5 µM; in data set [8] it was 1.7 µM. Also, the CC50 in data set [9] came out at 59.5 µM; in [10], 56.5 µM. In data set [11], the selectivity ratio came out at 119.
As for `CC1=C2CC[C@@](C)(O)[C@@H]2[C@H]2OC(=O)[C@@H](CN(C)CC(=O)Nc3nc4ccc(OC(F)(F)F)cc4s3)[C@@H]2CC1`, the inhibition result in data set [5] and in data set [6] was “Active” throughout.
For the compound `C=C1C(=O)O[C@@H]2/C=C(\C)CC/C=C(\C)CC[C@@H]12`, the inhibition entry in data set [1] was “Dose-dependent effect”.
As for `CC1=C2CC[C@@](C)(O)[C@@H]2[C@H]2OC(=O)[C@@H](CN(C)CCCOc3no[n+]([O-])c3S(=O)(=O)c3ccccc3)[C@@H]2CC1`, the IC50 worked out at 0.49 µM in [7] and 2.3 µM in [8]. In addition, the results for the CC50 in data set [9] and in data set [10] were 68.5 µM and 106 µM, respectively. Moreover, in [11], the selectivity ratio amounted to 140.
With `C=C1C(=O)O[C@@H]2[C@H]3O[C@@]3(C)CC/C=C(\C)CC[C@@H]12`, the inhibition entry in data set [1] and in [2] was “Dose-dependent effect” each time. Moreover, the IC50 stood at 1.4 µM in data set [7] and 1.8 µM in [8]. In addition, the CC50 in data set [9] came to 14.3 µM; in [10] it was 29.9 µM. The selectivity ratio in data set [11] came to 10.2. Moreover, the inhibition entry with Mus musculus [12] and with Mus musculus [13] was “Active” in each case.
`C/C1=C\CC[C@]2(C)O[C@@H]2[C@H]2OC(=O)[C@@H](CN(C)CC(=O)Nc3nc4ccc(OC(F)(F)F)cc4s3)[C@@H]2CC1`: the inhibition entry in data set [5] and in data set [6] was “Active” throughout.
For `C=C1C(=O)O[C@H]2[C@H]1CCC(C)=C1CC[C@@](C)(O)[C@@H]12` [MICHELIOLIDE], the inhibition result in data set [1] and in data set [2] was “Dose-dependent effect” throughout. The IC50 in data set [7] stood at 2.3 µM; in data set [8], 5.9 µM. For the same compound, the CC50 in [9] came to 21.9 µM; in data set [10], 51.7 µM. In addition, the selectivity ratio in data set [11] stood at 9.5.
In the case of `C/C1=C\CC[C@]2(C)O[C@@H]2[C@H]2OC(=O)[C@@H](CN(C)CCOc3no[n+]([O-])c3S(=O)(=O)c3ccccc3)[C@@H]2CC1`, the IC50 in [7] is 0.3 µM; in data set [8] it was 1 µM. Also, the CC50 in data set [9] worked out at 24.1 µM; in [10], 69.8 µM. Besides, in data set [11], the selectivity ratio is 80.3. The inhibition result in the data set with Mus musculus [12] and in the data set on Mus musculus [13] was “Active” each time. The inhibition entry in [14] and in [15] was “Dose-dependent effect” each time. In addition, the inhibition entry in data set [16], in data set [17] and in data set [18] was “inactive” each time.
For `O=S(=O)(c1ccccc1)c1no[n+]([O-])c1S(=O)(=O)c1ccccc1`, the IC50 in [7] came to 0.93 µM; in [8] it was 1.9 µM. Besides, the CC50 in [9] amounted to 11.4 µM; in data set [10] it was 22.4 µM. In addition, the selectivity ratio in [11] stood at 12.2.
